Data taken from US11589590B2, “Antimicrobial coatings and methods of making and using thereof” (GEORGIA TECH RESEARCH CORPORATION, priority 2016, dated 2023).

Key:
[1] = Fragmentation of pyridine adducts in deuterated aqueous buffer followed by 1H NMR; format: physicochemical
Source text: The fragmentation of cationic adducts was followed by ^1H NMR in deuterated buffer, with the relative concentration of each species established by integration of unique resonances. Each adduct in Table 3 and Table 4 was thus examined in three independent runs. […]

[2] = test system: CHO-K1 cells; format: cell-based; settings: for concentrations at which nontoxic: Chinese hamster
Protocol: Approximately 1×10^4 CHO-K1 cells/well were plated in a 96-well plate in 100 μL of complete growth media, and adhered overnight at 37° C. The media was then replaced by 100 μL of polymer or monomer in serum-free media at the indicated concentration. Full media was replenished after 4 or 24 h. Viability was measured by MTT assay, with non-treated cells assigned as 100% viability. The results are plotted in FIGS. 11A-11D and 12A-12H.

[3] = pseudo first order fragmentation at 50° C., deuterated buffer
[4] = pseudo first order fragmentation at 37° C.

SMILES | krel ([1]; 50° C., relative to 5e = 1.00) | kfrag [1, 3] | krel ([1]; 37° C., relative to 5i = 1) | kfrag [1, 4] | concentration up to which no effect (toxicity) [2] [µM] | concentrations at which nontoxic [2]
COC(=O)c1ccc[n+](C2CCC3SC2CCC3[n+]2cccc(C(=O)OC)c2)c1.O=[N+]([O-])[O-].O=[N+]([O-])[O-] (centres unmarked) [Compound 5b, 2,6-di-3-methoxycarbonylpyridinium-9-thiabicyclo[3.3.1]nonane dinitrate] | 1.86 | (3.03 ± 0.38) × 10^−2 h^−1 | – | – | – | –
COC(=O)c1cc[n+](C2CCC3SC2CCC3[n+]2ccc(C(=O)OC)cc2)cc1.O=[N+]([O-])[O-].O=[N+]([O-])[O-] (centres unmarked) [Compound 5c, 2,6-di-4-methoxycarbonylpyridinium-9-thiabicyclo[3.3.1]nonane dinitrate] | 2.25 | (3.66 ± 0.33) × 10^−2 h^−1 | 0.3 | (0.16 ± 0.01) × 10^−2 h^−1 | ≥ 500 | –
NC(=O)c1ccc[n+](C2CCC3SC2CCC3[n+]2cccc(C(N)=O)c2)c1.O=[N+]([O-])[O-].O=[N+]([O-])[O-] (centres unmarked) [Compound 5d, 2,6-di-3-carbamylpyridinium-9-thiabicyclo[3.3.1]nonane dinitrate] | 1.95 | (3.18 ± 0.32) ×10^−2 h^−1 | – | – | – | –
NC(=O)c1cc[n+](C2CCC3SC2CCC3[n+]2ccc(C(N)=O)cc2)cc1.O=[N+]([O-])[O-].O=[N+]([O-])[O-] (centres unmarked) [Compound 5e, 2,6-di-4-carbamylpyridinium-9-thiabicyclo[3.3.1]nonane dinitrate] | 1.00 | (1.62 ± 0.10) ×10^−2 h^−1 | – | – | – | –
Brc1ccc[n+](C2CCC3SC2CCC3[n+]2cccc(Br)c2)c1.O=[N+]([O-])[O-].O=[N+]([O-])[O-] (centres unmarked) [Compound 5f, 2,6-di-3-bromopyridinium-9-thiabicyclo[3.3.1]nonane dinitrate] | 4.05 | (6.59 ± 0.58) × 10^−2 h^−1 | – | – | – | –
FC(F)(F)c1ccc[n+](C2CCC3SC2CCC3[n+]2cccc(C(F)(F)F)c2)c1.O=[N+]([O-])[O-].O=[N+]([O-])[O-] (centres unmarked) [Compound 5g, 2,6-di-3-trifluoromethylpyridinium-9-thiabicyclo[3.3.1]nonane dinitrate] | 46.2 | (74.8 ± 5.4) × 10^−2 h^−1 | 11 | (5.87 ± 0.71) × 10^−2 h^−1 | – | –
N#Cc1ccc[n+](C2CCC3SC2CCC3[n+]2cccc(C#N)c2)c1.O=[N+]([O-])[O-].O=[N+]([O-])[O-] (centres unmarked) [Compound 5h, 2,6-di-3-cyanopyridinium-9-thiabicyclo[3.3.1]nonane dinitrate] | 6.68 | (10.8 ± 0.98) × 10^−2 h^−1 | 2.1 | (1.14 ± 0.16) × 10^−2 h^−1 | – | –
COc1cc(Br)c[n+](C2CCC3SC2CCC3[n+]2cc(Br)cc(OC)c2)c1.O=[N+]([O-])[O-].O=[N+]([O-])[O-] (centres unmarked) [Compound 5i, 2,6-di-3-bromo-5-methoxylpyridinium-9-thiabicyclo[3.3.1]nonane dinitrate] | 4.64 | (7.51 ± 0.53) × 10^−2 h^−1 | 1 | (0.55 ± 0.04) × 10^−2 h^−1 | ≥ 500 | –
NC(=O)c1cc(Br)c[n+](C2CCC3SC2CCC3[n+]2cc(Br)cc(C(N)=O)c2)c1.O=S(=O)([O-])C(F)(F)F.O=S(=O)([O-])C(F)(F)F (centres unmarked) [Compound 5j, 2,6-di-3-bromo-5-carbamylpyridinium-9-thiabicyclo[3.3.1]nonane ditriflate] | – | – | 17 | (9.34 ± 0.87) × 10^−2 h^−1 | – | –
COC(=O)c1cc(C(=O)OC)c[n+](C2CCC3SC2CCC3[n+]2cc(C(=O)OC)cc(C(=O)OC)c2)c1.O=S(=O)([O-])C(F)(F)F.O=S(=O)([O-])C(F)(F)F (centres unmarked) [Compound 5k, 2,6-di-3,5-dimethoxycarbonylpyridinium-9-thiabicyclo[3.3.1]nonane ditriflate] | – | – | 22 | (11.9 ± 1.13) × 10^−2 h^−1 | – | –
COC(=O)c1cc(Br)c[n+](C2CCC3SC2CCC3[n+]2cc(Br)cc(C(=O)OC)c2)c1.O=S(=O)([O-])C(F)(F)F.O=S(=O)([O-])C(F)(F)F (centres unmarked) [Compound 5l, 2,6-di-3-bromo-5-methoxycarbonylpyridinium-9-thiabicyclo[3.3.1]nonane ditriflate] | – | – | 20 | (10.9 ± 1.81) × 10^−2 h^−1 | – | –
c1cc(CCCc2ccncc2)ccn1 [monomer 2a] | – | – | – | – | – | below 500 μM
O=C(OCCCOC(=O)c1ccncc1)c1ccncc1 [monomer 2c] | – | – | – | – | – | below 500 μM
Brc1cncc(OCCCOc2cncc(Br)c2)c1 [monomer 2i, 1,3-bis((5-bromopyridin-3-yl)oxy)propane] | – | – | – | – | – | below 500 μM
